Test results reported in ChEMBL document CHEMBL1201862, “PubChem BioAssay data set” (2004).
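Compound exposure: 48 hours, 5 concentrations, 96-well plates. GI50 marks 50% less growth.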 Activity calls are given as the source filed them. No stated cut-off is given here; in the data, active = GI50 up to about 1.1 µM and inactive = higher.

How the values were obtained:
Experiment in all cases: DTP human tumour cell line panel, 48 h
[1] = test system: 786-0
[2] = test system: A498
[3] = test system: A549
[4] = test system: ACHN
[5] = test system: CAKI-1
[6] = test system: CCRF-CEM
[7] = test system: COLO 205
[8] = test system: DLD-1
[9] = test system: DMS-114
[10] = test system: DMS-273
[11] = test system: EKVX
[12] = test system: HCC 2998
[13] = test system: HCT-116
[14] = test system: HCT-15
[15] = test system: HOP-18
[16] = test system: HOP-62
[17] = test system: HOP-92
[18] = test system: HT-29
[19] = test system: IGROV-1
[20] = test system: K562
[21] = test system: KM-20L2
[22] = test system: LOX IMVI
[23] = test system: LXFL 529
[24] = test system: M14
[25] = test system: M19-MEL
[26] = test system: MOLT-4
[27] = test system: Malme-3M
[28] = test system: NCI-H23
[29] = test system: NCI-H522
[30] = test system: OVCAR-3
[31] = test system: OVCAR-4
[32] = test system: OVCAR-5
[33] = test system: OVCAR-8
[34] = test system: RPMI-8226
[35] = test system: RXF 393
[36] = test system: RXF 631
[37] = test system: SF-268
[38] = test system: SF-295
[39] = test system: SF-539
[40] = test system: SK-MEL-28
[41] = test system: SK-MEL-2
[42] = test system: SK-MEL-5
[43] = test system: SK-OV-3
[44] = test system: SN12C
[45] = test system: SNB-19
[46] = test system: SNB-75
[47] = test system: SNB-78
[48] = test system: SW-620
[49] = test system: TK-10
[50] = test system: U-251
[51] = test system: UACC-257
[52] = test system: UACC-62
[53] = test system: UO-31

## O=C(N/C(=C\c1ccc(/C=C(\NC(=O)c2ccccc2)c2nc3cc([N+](=O)[O-])ccc3[nH]2)cc1)c1nc2cc([N+](=O)[O-])ccc2[nH]1)c1ccccc1
[1]
  GI50: 42.4 µM (inactive)
[2]
  GI50: 26 µM (inactive)
[3]
  GI50: 31 µM (inactive)
[4]
  GI50: 23.2 µM (inactive)
[5]
  GI50: > 100 µM (inactive)
[6]
  GI50: 20.8 µM (inactive)
[7]
  GI50: 29.8 µM (inactive)
[8]
  GI50: 43.8 µM (inactive)
[9]
  GI50: 18.8 µM (inactive)
[10]
  GI50: 51.6 µM (inactive)
[11]
  GI50: 32.9 µM (inactive)
[12]
  GI50: 27.1 µM (inactive)
[13]
  GI50: 28.1 µM (inactive)
[14]
  GI50: 49.8 µM
[15]
  GI50: > 100 µM (inactive)
[16]
  GI50: > 100 µM (inactive)
[17]
  GI50: 35.2 µM (inactive)
[18]
  GI50: 30.3 µM (inactive)
[19]
  GI50: 82.8 µM (inactive)
[20]
  GI50: 18.3 µM (inactive)
[21]
  GI50: 37.8 µM (inactive)
[22]
  GI50: 28.8 µM (inactive)
[23]
  GI50: 28.4 µM (inactive)
[24]
  GI50: 30.8 µM (inactive)
[25]
  GI50: 52.4 µM (inactive)
[26]
  GI50: 11 µM (inactive)
[27]
  GI50: > 100 µM (inactive)
[28]
  GI50: 25.4 µM (inactive)
[29]
  GI50: 11.4 µM (inactive)
[30]
  GI50: 39.6 µM (inactive)
[31]
  GI50: 39.5 µM (inactive)
[32]
  GI50: > 100 µM (inactive)
[33]
  GI50: 34.9 µM (inactive)
[34]
  GI50: 12 µM (inactive)
[35]
  GI50: 24 µM (inactive)
[36]
  GI50: 34.5 µM (inactive)
[37]
  GI50: 22.1 µM (inactive)
[38]
  GI50: 43.1 µM (inactive)
[39]
  GI50: 80.4 µM (inactive)
[40]
  GI50: 14.8 µM (inactive)
[41]
  GI50: 14.9 µM (inactive)
[42]
  GI50: 22.2 µM (inactive)
[43]
  GI50: > 100 µM (inactive)
[44]
  GI50: 71.3 µM (inactive)
[45]
  GI50: > 100 µM (inactive)
[46]
  GI50: 68.5 µM (inactive)
[47]
  GI50: > 100 µM (inactive)
[48]
  GI50: 55.7 µM (inactive)
[49]
  GI50: 32.1 µM (inactive)
[50]
  GI50: 54.6 µM (inactive)
[51]
  GI50: 47.8 µM (inactive)
[52]
  GI50: 15.4 µM (inactive)
[53]
  GI50: 46.7 µM (inactive)
